Experimental findings from US11142504B2, “Substituted heterocycles as c-MYC targeting agents” (Northwestern University, priority 2016, dated 2021) are described below.

One series deals with MYC/Max binding to DNA (Homo sapiens, UniProt P01106). Put plainly: Electrophoretic mobility shift assay (EMSA). How it is done:
We also tested our best hit compound Min9 (NUCC-0176234) and newly synthesized analogs for effects of these compounds on MYC/Max binding to DNA in electrophoretic mobility shift assays (EMSAs). (See FIG. 5a and FIG. 5b). We expected the active compounds to impair MYC/Max binding to DNA. Several structural analogs of Min9 were tested over multiple doses for inhibiting MYC-DNA binding and we observed a dose-dependent inhibition. (See FIG. 5c).

The next series relates to PC12 cells. Put plainly: Cell viability of PC12 cells. It counts as cell-based. The settings on record: for IC50: Rattus norvegicus, PC-12, Cell viability of PC12 cells. Here is the method:
(§1) PC3 prostate cancer cell line with high Myc level and PC12 pheochromocytoma tumor cell line with non functional Max protein, which is not dependent on Myc-Max complex, were phased from ATCC. Cells were plated in 96 well plate at 1000 cells per well, and Myc inhibitor 361 at various concentrations was added to the cells next day. After 3 days of treatment, fresh medium with 361 were added again, and cell viability was measured by MTS assay at day 5 after the treatment. (See FIG. 11).

The test system of series [1] is MycCap cells. The experiment in a line: Cell viability of MycCap cells. The settings on record: Mus musculus, Myc-CaP. The series is classed as cell-based.
A short description of series [2]: Stability in mouse liver microsomes. The following applies: % remaining of compound after 60 min treatment with mouse liver microsomes. It counts as in vitro ADME. Here is the method: (§2) In vitro metabolism of NUCC-176242 and NUCC-176248 were tested using mouse liver microsomes and a mouse S9 fraction. (See FIG. 9).
Series [3] can be described thus: In vitro metabolism in mouse S9 fraction. The series is classed as in vitro ADME. Here is the method: as §2
The subject of another series is MV411 cells. Put plainly: AML xenograft model, combination with Ara-C. The settings on record: AML mice xenograft. The series is classed as in vivo, CB17 SCID mice. Here is the method: CB17 SCID mice were inoculated with MV411 cells at the density of 5×10^6 suspended in PBS and matrigel (1:1). The mice were randomized based on tumor volume into 6 different groups after the tumor reached ˜200 to 500 mm^3. The mice were treated either with vehicle, NU031, NU975 alone or in combination with cytarabine (Ara-C). […] (See FIG. 17).

The test system of series [4] is cMYC wild-type (WT) and cMYC KO line. The experiment in a line: Cell viability assay, cMYC wild-type line vs cMYC KO line. It counts as cell-based. How it is done: Min9 (NUCC-0176234) was also tested in a cell viability assay against a cMYC wild-type (WT) and a cMYC KO line.
The subject of series [5] is PC3 prostate cancer cell line. The experiment in a line: Proliferation assay (MTS), PC3 cells. The settings on record: MTS at day 5. The series is classed as cell-based. Here is the method:
as §1

For series [6], the system named is MYC transcriptional activity. The experiment in a line: MYC E-Box luciferase reporter assay. It counts as cell-based. The settings on record: MycCap Ebox-luc, 4 hours of treatment. Here is the method:
To test the compounds, we evaluated the in silico hits in a MYC E-Box luciferase reporter assay to measure the effects of these compounds (referred to as Min-1 to Min-32) on MYC transcriptional activity. […] (See FIG. 2).
MycCap cells stably expressing luciferase with CMV promoter (MycCap-luc) or c-Myc E-box-luciferase reporter (MycCap Ebox-luc) were plated at 10000 cells per well in 96 well white-wall plate. Serial dilutions of 361 were treated next day. At 4 hours of treatment, luminescence signal was determined immediately after adding 150 μg/ml of Luciferin to the well. (See FIG. 12).
(In a reporter assay the amount or activity of a reporter protein is the signal.)

Series [7] concerns MycCap cells. The experiment in a line: MycCap FVB allograft model. It counts as in vivo, FVB mice. Here is the method: FVB mice were inoculated with 1×10^6 of MycCap cells in 100 ul of matrigel subcutaneously on both flanks of the mice. When tumor size reached average size of 150 mm^3, mice were randomized based on tumor volume to 2 groups. Mice were administered with 50 mg/kg of 361 or vehicle (Veh) twice daily intra-peritoneally for two days. The treatment was suspended for 10 day, and initiated the treatment with a lower dose […] daily for another 9 days. Tumor size was measured twice a week during the experiment. (See FIG. 15).
MycCap FVB allograft model was treated with 361 (50 mg/kg) for two days, following by two days of anti-PD-1 antibody (100 ug/day), and kept this 4-day treatment cycle for 4 cycles. (See FIG. 16).

Series [8] relates to MYC WT and KO fibroblasts. The experiment in a line: Growth inhibition of wild type and MYC knockout rat fibroblasts. The series is classed as cell-based. From the text: We tested the top 13 active compounds in the first screen assay. […] More than half of the tested compounds show better growth inhibitory effect on MYC WT compared to MYC KO cells.

Sequence of MYC/Max binding to DNA (P01106 whole entry, species assumed): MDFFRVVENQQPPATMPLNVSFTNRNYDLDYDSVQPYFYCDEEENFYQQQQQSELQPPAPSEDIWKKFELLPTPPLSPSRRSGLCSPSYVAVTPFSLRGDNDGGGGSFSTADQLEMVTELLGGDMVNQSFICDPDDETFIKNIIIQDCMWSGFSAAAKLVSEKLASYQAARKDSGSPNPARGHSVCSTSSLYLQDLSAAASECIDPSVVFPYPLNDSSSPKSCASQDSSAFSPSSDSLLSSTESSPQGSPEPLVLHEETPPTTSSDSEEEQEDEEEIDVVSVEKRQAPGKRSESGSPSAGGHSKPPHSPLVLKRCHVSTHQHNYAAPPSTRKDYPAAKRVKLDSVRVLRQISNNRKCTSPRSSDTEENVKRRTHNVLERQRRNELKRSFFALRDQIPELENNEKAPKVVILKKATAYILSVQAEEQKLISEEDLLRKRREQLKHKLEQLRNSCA

A word on the IC50: it is the concentration that gives 50% inhibition. Consider `Cn1nc(C(F)(F)F)cc1-c1ccc(OCc2ccc(Cl)cc2)c(-c2cc(C(F)(F)F)cc(C(F)(F)F)c2)c1O` [NUCC-0196361], for which the IC50 stood at 63 µM at MYC/Max binding to DNA, 30.7 µM in the series with PC12 cells and 3.8 µM in the series on MycCap cells [1]. Also, the “MLM % at 60 min” value in series [2] amounted to 72.9%.

As for `Oc1c(-c2cc(C(F)(F)F)[nH]n2)ccc(OCc2ccc(Cl)cc2)c1-c1cc(C(F)(F)F)cc(C(F)(F)F)c1` [NUCC-0196362], the IC50 was determined as 102 µM on MYC/Max binding to DNA and 4 µM with MycCap cells [1].

Turning to `Oc1c(-c2cc(C(F)(F)F)[nH]n2)ccc(OCc2ccc(Cl)cc2)c1-c1ccccc1Cl` [NUCC-0196363], the IC50 on MYC/Max binding to DNA was found to be 61.8 µM; in the series on MycCap cells [1], 4 µM. Besides, the “MLM % at 60 min” value in [2] is recorded as 88.6%.

With `CCc1ccc(Oc2c(-c3ccc(OCc4ccc(Cl)cc4)cc3O)n[nH]c2C(F)(F)F)cc1` [NUCC-0176242], the results for the IC50 in the series with PC12 cells and with MycCap cells [1] were 9.8 µM and 3.1 µM, respectively. Further, in series [3], the “in vitro metabolism by mouse S9 fraction” value was “significantly metabolism by the mouse S9 fraction”.

In the case of `CCCCOc1ccc(-c2cc(C(F)(F)F)n[nH]2)c(O)c1-c1cc(C(F)(F)F)cc(C(F)(F)F)c1` [NU031], the “anti-tumor effect in combination with Ara-C” value (“anti-tumor effect” for short) in the series with MV411 cells is given as “significant difference compared to control group”.

In the case of `Cn1nc(C(F)(F)F)cc1-c1ccc(OCc2ccc(Cl)cc2)c(-c2ccc(Cl)c(C(F)(F)F)c2)c1O` [NU975], the “anti-tumor effect” value in the series on MV411 cells is listed as “significant difference compared to control group”.

Turning to `CCc1ccc(Oc2c[nH]nc2-c2ccc(OCc3cnn(-c4ccccc4)c3)cc2O)cc1` [NUCC-0176234], the “inhibition of MYC/Max binding to DNA (in words)” value on MYC/Max binding to DNA was “prevent c-MYC/DNA binding”. Moreover, the “cell viability, WT line vs KO cells” value in series [4] is given as “reduces cell viability much more in the WT line than the KO cells”.

With `Cn1nc(C(F)(F)F)cc1-c1ccc(OCc2ccc(Cl)cc2)c(-c2cc(C(F)(F)F)cc(C(F)(F)F)c2)c1O` [compound 361], the “proliferation of Myc dependent cell line PC3” value in series [5] was “specifically inhibits proliferation”. In addition, the c-Myc transcription activity entry in series [6] is “inhibits c-Myc transcription activity as an early event before affecting cell viability”. Further, the “tumor progression, combination with immunotherapy” value with MycCap cells [7] (361 50 mg/kg with anti-PD-1 antibody, 4-day cycles) is listed as “significantly blocks tumor progression”. Further, the tumor volume entry in the series on MycCap cells [7] (mouse prostate cancer allograft, intra-peritoneally) is on record as “reduces tumor volume”. Moreover, the “proliferation of Myc independent cell line PC12” value in the series with PC12 cells (MTS at day 5) was “not”.

For the compound `Oc1cc(OCc2ccc(Cl)cc2)ccc1-c1n[nH]c(C(F)(F)F)c1-c1ccccc1` [NUCC-0198295], the IC50 on MYC/Max binding to DNA is 53.3 µM; in the series with MycCap cells [1] it was 4.6 µM.

`Cn1nc(C(F)(F)F)cc1-c1ccc(OCc2ccc(Cl)cc2)c(-c2ccc(Cl)c(C(F)(F)F)c2)c1O` [NUCC-0200975]: the “anti-tumor effect” value in the series on MV411 cells (listed as 975) is “significant synergic anti-tumor effect with Ara-C”. In addition, the half-maximal inhibitory concentration (IC50) with PC12 cells was 38.4 µM; in the series with MycCap cells [1] it was 6.1 µM.

`Oc1cc(OCc2ccc(Cl)cc2)ccc1-c1n[nH]c(C(F)(F)F)c1Oc1ccccc1Cl` [NUCC-0196342]: the IC50 at MYC/Max binding to DNA is 64.4 µM; in the series with MycCap cells [1], 3.5 µM. Moreover, the “MLM % at 60 min” value in series [2] is on record as 87.4%.

For `CCOC(=O)c1cc(-c2ccc(OCc3ccc(Cl)cc3)c(-c3cc(C(F)(F)F)cc(C(F)(F)F)c3)c2O)n[nH]1` [NUCC-0200972], the values for the IC50 in the series with PC12 cells and with MycCap cells [1] were 81 µM and 5.1 µM, respectively. Besides, the “MLM % at 60 min” value in [2] is recorded as 60.3%.

Take `COc1cccc(-c2c(-c3ccc(OCc4ccc(Cl)cc4)cc3O)n[nH]c2C(F)(F)F)c1` [NUCC-0198309]: the figures for the IC50 on MYC/Max binding to DNA and in the series on MycCap cells [1] were 61.2 µM and 4 µM, respectively. Also, the “MLM % at 60 min” value in series [2] was found to be 74%.

For the compound `CCc1ccc(Oc2c(-c3ccc(OCc4ccc(Cl)cc4)cc3O)nn(C)c2C(F)(F)F)cc1` [NUCC-0176248], in [8], the “selectivity of growth inhibition, MYC WT vs MYC KO cells” value was “high specificity”. In addition, the IC50 with PC12 cells stood at 7.8 µM; in the series with MycCap cells [1] it was 3.4 µM.

With `CCc1ccc(Oc2c(-c3ccc(OCc4ccncc4)cc3O)n[nH]c2C(F)(F)F)cc1` [NUCC-0176250], the “selectivity of growth inhibition, MYC WT vs MYC KO cells” value in [8] was “great selectivity”.
